# Measurements reported in patent EP4744665A1, “COMBINATION OF POLQ INHIBITOR COMPOUND AND ANTI-CANCER THERAPEUTIC AGENT OR RADIOTHERAPY” (Simcere Zaiming Pharmaceutical Co., Ltd., priority 2023, dated 2025).
# How the values were obtained:
# A2780 = assay: Combined use with combination drug, matrix study, Bliss Independence model (Cell Titer Glo, 7 days); format: cell-based, human
# Experimental: (§1) DLD-1 colorectal adenocarcinoma cells, DLD-1 BRCA2 (-/-) colorectal adenocarcinoma cells, SHP-77 human small cell lung cancer cells, NCI-H82 human small cell lung cancer cells, LNCAP prostate cancer cells, KURAMOCHI human ovarian cancer cells, A2780 human ovarian cancer cells, and NCI-H23 non-small cell lung cancer cells were cultured in a 1640 medium containing 10% fetal bovine serum. SKOV3 human ovarian cancer cells were cultured in a McCoy's 5A (modified) medium containing 10% fetal bovine serum. OVCAR3 ovarian cancer cells were cultured in a 1640 medium containing 20% fetal bovine serum and 10 µg/mL bovine insulin. MDA-MB-436 breast cancer cells (natural BRCA1 mutation) and A549 non-small cell lung cancer cells were cultured in a DMEM medium containing 10% fetal bovine serum. Capan-1 human pancreatic cancer cells (natural BRCA2 mutation) were cultured in an IMDM medium containing 20% fetal bovine serum. The cells were all cultured at 37 °C with 5% CO2. Cells at the logarithmic growth phase were available for the experiment.
# (§2) 100 µL of the cell medium was added to rows A and H and columns 1 and 12 of a 96-well cell culture plate. Cultured cells were resuspended (adherent cells were digested with trypsin) and counted to give information on cell density and viability. The dilution ratio of the resuspended cells required for inoculating a fixed number of cells into 80 µL of the medium in each culture well was calculated based on the cell density information. After the resuspended cells were diluted with the corresponding medium, 80 µL of the diluted cells were transferred to columns 2-11 of rows B-G of a 96-well cell culture plate using an Eppendorf multi-channel pipette (60 wells in total for each plate). The cell culture plate was incubated overnight in an incubator at 37 °C with 5% CO2.
# (§3) The test compound and the combination compound were dissolved in DMSO to give a 10 mM solution for later use. In the experiment, the compound was further diluted to the corresponding concentration according to the concentration designed in the experiment, and based on this concentration, serial gradient dilution was performed. Matrix study was performed at 8 or 7 dose concentrations of the test compound (the lowest dose concentration was 0, and other specific concentration values were shown in FIG. 1) and 7 or 8 dose concentrations of the combination compound (the lowest dose concentration was 0, and other specific concentration values were shown in FIG. 1). 10 µL of each of the diluted combination compound and test compound was added to the corresponding cell plate well, such that the final concentration of DMSO was 0.25%. The test compound and the cells were incubated in an incubator at 37 °C with 5% CO2 for another 7 days, Cell Titer Glo was added at 50 µL/well, and the luminescence value of each well was read using an Envision microplate reader.
# (§4) The luminescence value of the well containing only the cell medium was taken as the background (RLUbackground, corresponding cell survival rate to be 0%), the cell well containing only 0.25% DMSO without the compound was taken as the maximum signal (RLUDMSO, corresponding cell survival rate to be 100%), and the luminescence values of the remaining wells containing cells and compounds at different concentrations were taken as RLUsample. The survival rate of each cell well was calculated as follows: Survival rate (%) = (RLUsample−RLUbackground)/(RLUDMSO−RLUbackground) × 100% [formula]
# (§5) The interaction between drugs (synergistic, independent, or antagonistic) was statistically analyzed by the Bliss Independence model using Combenefit software (Bliss, C.I., Bacteriol. Rev., 1956, 20, 243-258). The model assumes that each drug acts independently. The theoretical expected action curve of the combination was calculated from the following equation: Bliss effect = effect A + effect B−effect A × effect B [formula] wherein effect A and effect B are the effects of drugs A and B alone at specific concentrations. […]
# Capan-1 = assay: as above; format: cell-based, human
# Experimental: as §1, §2, §3, §4, §5
# KURAMOCHI = assay: as above; format: cell-based, human
# Experimental: as §1, §2, §3, §4, §5
# NCI-H82 = assay: as above; format: cell-based, human; conditions: combination with Etoposide (Topoisomerase II inhibitor)
# Experimental: as §1, §2, §3, §4, §5
# SKOV3 = assay: as above; format: cell-based, human
# Experimental: as §1, §2, §3, §4, §5
# [1] = test system: human colorectal adenocarcinoma DLD1 BRCA2-/- cells; assay: Efficacy of combined use with olaparib in DLD1 BRCA2-/- xenograft tumor model; format: in vivo, NU/NU nude mice; conditions: 10 mg/kg QD intragastric in combination with 50 mg/kg olaparib QD
# Excerpt: The anti-tumor activity of the sodium salt of compound I used in combination with olaparib (MCE, 136925) was studied using a DLD1 BRCA2-/- subcutaneous tumor model. 32 female NU/NU nude mice (6-8 weeks old, Beijing Vital River Laboratory Animal Technology Co., Ltd.) were subcutaneously inoculated with 1 × 10^7 human colorectal adenocarcinoma DLD1 BRCA2-/- cells (Horizon- HD105-007). When the tumors grew to 80-100 mm^3, the mice were randomly divided into four groups with eight mice per group: a first group treated with vehicle control (QD) by intragastric administration, a second group treated with a 10 mg/kg solution of the sodium salt of compound I (QD) by intragastric administration, a third group treated with a 50 mg/kg olaparib solution (QD) by intragastric administration, and a fourth group treated with a 10 mg/kg solution of the sodium salt of compound I (QD) by intragastric administration and a 50 mg/kg olaparib solution (QD) by intragastric administration. The vehicle of olaparib was a solution containing 10% DMSO, 50% 2-hydroxypropyl-β-cyclodextrin (Aladdin-F2223139, 60% aqueous solution), and 40% water, the vehicle of the sodium salt of compound I was 10% (w/v) Vitamin E TPGS (Hanhong Chemical-BH-GN0100619-22 1101) aqueous solution, and the vehicle of the vehicle control group was a mixture of the vehicle of olaparib and the vehicle of the sodium salt of compound I (mixed at a volume ratio of 1:1). Mice had free access to food and water throughout the experiment.
# Tumor diameters were measured twice weekly using a vernier caliper. The tumor volume (V) was calculated using the following formula: V = 0.5a × b^2, wherein a and b represent the long diameter and short diameter of the tumor, respectively.
# Mouse body weight was measured twice weekly.
# Two way ANOVA was used to compare the differences in tumor growth trend among groups, and a significant difference was considered when p < 0.05.
# [2] = combination with Doxorubicin hydrochloride (Topoisomerase II inhibitor)
# [3] = combination with Paclitaxel (Tubulin inhibitor)
smiles,measurement,setting,value
"COc1ccc(Cl)cc1-c1cc(C)ncc1C(=O)Nc1nc2ncc(-c3ccc(C#N)cc3)nc2s1.[Na] [Sodium salt of compound I, Sodium Salt of 4-(5-Chloro-2-methoxyphenyl)-N-[6-(4-cyanophenyl)thiazolo[4,5-b]pyrazin-2-yl]-6-methylnicotinamide]",Combined effect,A2780; [2],Synergistic
same,Combined effect,A2780; combination with Etoposide (Topoisomerase II inhibitor),Synergistic
same,Combined effect,A2780; [3],Synergistic
same,Combined effect,Capan-1; combination with Niraparib (PARP inhibitor),Synergistic
same,Combined effect,Capan-1; combination with Olaparib (PARP inhibitor),Synergistic
same,Combined effect,Capan-1; combination with RP3500 (ATR inhibitor),Synergistic
same,Combined effect,Capan-1; combination with Talazoparib (PARP inhibitor),Synergistic
same,Combined effect,KURAMOCHI; [2],Synergistic
same,Combined effect,KURAMOCHI; [3],Synergistic
same,Combined effect,NCI-H82,Synergistic
same,Combined effect,SKOV3; [2],Synergistic
same,Combined effect,SKOV3; [3],Synergistic
same,anti-tumor effect of combination with olaparib,[1],strong synergistic anti-tumor effect
same,tumor volume,[1]; versus either single drug group,significantly lower
same,safety,"[1]; condition of mice, body weight",good safety
